Assay results from patent US20090182003A1, “Methods and Compositions for Treatment Cell Proliferative Disorders” (President and Fellows of Harvard College, priority 2006, published 2009).

What was measured:
human JAK2 = human JAK2 (Homo sapiens, UniProt O60674); assay: Kinase panel screen, JAK2; format: biochemical; details: kinase reaction with 10 or 100 μM ATP
human pim-2 = human pim-2 (Homo sapiens, UniProt Q9P1W9); assay: Kinase panel screen, Pim-2; format: biochemical; details: kinase reaction with 10 or 100 μM ATP
human pim-2, sequence (Q9P1W9 whole entry): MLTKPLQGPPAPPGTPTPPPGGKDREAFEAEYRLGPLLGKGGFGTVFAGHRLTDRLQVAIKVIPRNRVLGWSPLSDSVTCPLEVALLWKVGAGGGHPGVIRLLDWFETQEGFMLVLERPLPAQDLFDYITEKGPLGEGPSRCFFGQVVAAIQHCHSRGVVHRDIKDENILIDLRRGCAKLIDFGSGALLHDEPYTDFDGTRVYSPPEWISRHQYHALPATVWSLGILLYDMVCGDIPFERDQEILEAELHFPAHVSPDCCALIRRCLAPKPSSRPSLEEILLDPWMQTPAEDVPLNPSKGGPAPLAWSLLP

Rsk2 = Rsk2 (Homo sapiens, UniProt P51812); assay: Kinase panel screen, Rsk2; format: biochemical; details: 20 μM resveratrol
Rsk2, sequence (P51812 whole entry): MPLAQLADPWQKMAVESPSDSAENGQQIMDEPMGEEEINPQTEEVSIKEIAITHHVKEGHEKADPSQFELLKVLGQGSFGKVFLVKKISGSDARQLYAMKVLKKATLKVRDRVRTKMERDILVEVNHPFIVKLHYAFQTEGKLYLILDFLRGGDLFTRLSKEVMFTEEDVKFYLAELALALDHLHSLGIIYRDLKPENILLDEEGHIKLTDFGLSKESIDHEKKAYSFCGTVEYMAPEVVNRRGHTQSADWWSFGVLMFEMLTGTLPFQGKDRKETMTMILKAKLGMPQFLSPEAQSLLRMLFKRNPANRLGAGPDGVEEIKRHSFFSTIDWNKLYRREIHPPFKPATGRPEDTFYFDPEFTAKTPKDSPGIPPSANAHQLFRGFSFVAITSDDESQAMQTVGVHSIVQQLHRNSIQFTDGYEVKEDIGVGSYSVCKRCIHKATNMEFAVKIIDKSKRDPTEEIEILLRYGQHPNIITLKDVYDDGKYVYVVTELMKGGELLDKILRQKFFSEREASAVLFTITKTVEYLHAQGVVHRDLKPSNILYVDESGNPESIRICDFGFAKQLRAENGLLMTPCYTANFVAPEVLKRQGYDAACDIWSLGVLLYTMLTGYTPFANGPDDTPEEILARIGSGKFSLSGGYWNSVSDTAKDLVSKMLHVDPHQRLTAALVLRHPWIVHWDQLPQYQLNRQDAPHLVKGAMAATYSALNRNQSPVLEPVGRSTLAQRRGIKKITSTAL

human p70S6K = human p70S6K (Homo sapiens, UniProt P23443); assay: Kinase panel screen, p70S6K; format: biochemical; details: 10 or 100 μM ATP; 0.01-100 μM resveratrol
human p70S6K, sequence (P23443 whole entry): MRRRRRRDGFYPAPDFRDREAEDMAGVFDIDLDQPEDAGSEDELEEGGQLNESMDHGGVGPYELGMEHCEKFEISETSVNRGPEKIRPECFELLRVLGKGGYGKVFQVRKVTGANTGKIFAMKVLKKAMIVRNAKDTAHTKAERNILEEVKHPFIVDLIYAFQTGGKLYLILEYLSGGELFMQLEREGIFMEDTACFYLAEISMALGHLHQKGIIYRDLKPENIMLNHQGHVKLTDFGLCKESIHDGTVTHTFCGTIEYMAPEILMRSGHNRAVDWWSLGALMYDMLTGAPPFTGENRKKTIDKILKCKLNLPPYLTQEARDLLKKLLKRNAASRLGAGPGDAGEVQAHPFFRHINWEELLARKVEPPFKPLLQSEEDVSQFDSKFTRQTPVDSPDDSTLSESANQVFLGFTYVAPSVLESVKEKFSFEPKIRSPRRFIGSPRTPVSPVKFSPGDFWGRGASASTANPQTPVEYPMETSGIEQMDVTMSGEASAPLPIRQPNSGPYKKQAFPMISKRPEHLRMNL

NLK = target: T1, NLK (Homo sapiens, UniProt Q9UBE8); assay: Kinase panel screen, NLK; format: biochemical; details: 10 μM ATP; 0.01-100 μM resveratrol
T1 sequence (Q9UBE8 1-527): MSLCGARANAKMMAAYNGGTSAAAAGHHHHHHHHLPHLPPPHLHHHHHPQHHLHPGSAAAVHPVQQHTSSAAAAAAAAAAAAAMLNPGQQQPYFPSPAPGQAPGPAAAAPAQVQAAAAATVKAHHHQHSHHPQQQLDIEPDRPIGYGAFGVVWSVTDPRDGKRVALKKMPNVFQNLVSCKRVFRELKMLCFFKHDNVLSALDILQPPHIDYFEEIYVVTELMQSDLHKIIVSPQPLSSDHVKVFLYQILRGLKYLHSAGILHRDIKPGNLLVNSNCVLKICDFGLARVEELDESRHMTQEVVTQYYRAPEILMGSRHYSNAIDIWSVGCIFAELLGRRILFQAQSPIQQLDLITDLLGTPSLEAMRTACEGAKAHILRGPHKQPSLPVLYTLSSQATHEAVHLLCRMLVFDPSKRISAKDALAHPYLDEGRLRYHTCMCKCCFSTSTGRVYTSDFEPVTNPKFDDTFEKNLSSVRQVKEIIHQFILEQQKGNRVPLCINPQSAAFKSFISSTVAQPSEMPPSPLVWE

Src = Src (Homo sapiens, UniProt P12931); assay: Kinase panel screen, Src; format: biochemical; details: concentration of 20 micromolar
Src, sequence (P12931 whole entry, species assumed): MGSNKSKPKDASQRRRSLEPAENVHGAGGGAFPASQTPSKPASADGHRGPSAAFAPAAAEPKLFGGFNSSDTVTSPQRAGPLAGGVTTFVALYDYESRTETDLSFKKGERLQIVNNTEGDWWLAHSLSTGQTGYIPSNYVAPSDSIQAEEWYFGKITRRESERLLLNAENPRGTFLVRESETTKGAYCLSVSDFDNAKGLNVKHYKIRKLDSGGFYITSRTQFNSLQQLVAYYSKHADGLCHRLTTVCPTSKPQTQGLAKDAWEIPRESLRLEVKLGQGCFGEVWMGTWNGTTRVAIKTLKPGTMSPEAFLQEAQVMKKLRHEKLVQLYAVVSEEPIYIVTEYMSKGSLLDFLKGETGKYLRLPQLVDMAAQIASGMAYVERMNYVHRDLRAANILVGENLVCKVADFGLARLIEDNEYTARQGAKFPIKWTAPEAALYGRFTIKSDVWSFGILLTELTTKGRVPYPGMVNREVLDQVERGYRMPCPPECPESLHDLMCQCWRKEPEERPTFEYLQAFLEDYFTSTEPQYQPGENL

FL5.12 cells = assay: Growth inhibition of hematopoietic cell line FL5.12; format: cell-based; details: 0.1, 1, 10 and 100 μM, 24 hours, in the presence of IL-3, Coulter cell count
Method: Hematopoietic cell line FL5.12 cells were seed at equal density and grown in the presence of IL-3, a growth factor. Cells were then treated for 24 hours with 0.1, 1, 10 and 100 μM resveratrol. Cells were counted with a Coulter particle counter to determine cell inhibition by resveratrol.

PKC = assay: Kinase panel screen, PKC; details: concentration of 20 micromolar
PI3K = assay: Kinase panel screen, PI3K; details: concentrations up to 20 micromolar

human JAK2, sequence (O60674 whole entry): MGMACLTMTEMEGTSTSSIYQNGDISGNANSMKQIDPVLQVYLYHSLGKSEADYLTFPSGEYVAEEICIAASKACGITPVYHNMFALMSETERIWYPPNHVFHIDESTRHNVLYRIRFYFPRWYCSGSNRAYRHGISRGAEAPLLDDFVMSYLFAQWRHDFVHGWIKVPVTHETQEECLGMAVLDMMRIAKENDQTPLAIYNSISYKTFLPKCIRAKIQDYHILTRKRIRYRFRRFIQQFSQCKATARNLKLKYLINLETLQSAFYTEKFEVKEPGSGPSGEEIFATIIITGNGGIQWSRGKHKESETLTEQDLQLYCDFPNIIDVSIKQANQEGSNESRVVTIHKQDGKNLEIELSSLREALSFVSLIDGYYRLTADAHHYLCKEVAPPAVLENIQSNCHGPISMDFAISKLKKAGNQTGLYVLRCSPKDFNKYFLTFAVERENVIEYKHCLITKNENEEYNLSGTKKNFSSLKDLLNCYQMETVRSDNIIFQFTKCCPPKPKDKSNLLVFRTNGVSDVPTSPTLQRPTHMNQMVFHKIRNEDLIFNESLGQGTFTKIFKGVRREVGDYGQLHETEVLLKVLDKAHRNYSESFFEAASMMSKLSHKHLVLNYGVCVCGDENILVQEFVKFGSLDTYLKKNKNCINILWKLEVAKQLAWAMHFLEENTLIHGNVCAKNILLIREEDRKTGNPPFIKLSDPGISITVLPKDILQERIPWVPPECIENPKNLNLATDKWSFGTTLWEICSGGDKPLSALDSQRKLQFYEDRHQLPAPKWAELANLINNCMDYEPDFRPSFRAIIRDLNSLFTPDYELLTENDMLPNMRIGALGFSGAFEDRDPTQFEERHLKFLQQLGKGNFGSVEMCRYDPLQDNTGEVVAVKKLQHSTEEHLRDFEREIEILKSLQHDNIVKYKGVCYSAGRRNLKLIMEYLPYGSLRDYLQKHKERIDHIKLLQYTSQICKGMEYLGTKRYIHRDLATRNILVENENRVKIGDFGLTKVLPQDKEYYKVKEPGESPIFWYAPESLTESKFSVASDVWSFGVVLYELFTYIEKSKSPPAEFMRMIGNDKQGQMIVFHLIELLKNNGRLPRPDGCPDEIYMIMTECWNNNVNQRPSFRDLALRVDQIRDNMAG

In the case of `Oc1ccc(C=Cc2cc(O)cc(O)c2)cc1` [resveratrol, 3,5, 4′-trihydroxystilbene], the IC50 (human JAK2) is reported as 1470 nM, the IC50 (human pim-2) is reported as 1490 nM and the inhibition at 20 µM (Rsk2) is reported as ~68%. For the same compound, the “Inhibition of p70S6K (in words)” value (human p70S6K) was “specific inhibitor”, the “Inhibition of NLK (in words)” value (NLK) was “specific inhibitor” and the “Inhibition of Src (in words)” value (Src) was “either not inhibited or only weakly inhibited”. The “Inhibition of FL5.12 cell growth (in words)” value (FL5.12 cells) was “dose dependent inhibition”, the “Inhibition of PKC (in words)” value (PKC) was “either not inhibited or only weakly inhibited” and the “Inhibition of PI3K (in words)” value (PI3K) was “no inhibition”.
